Reference: patent US20090155245A1, “Treatment for Organ Regeneration with Combination of Drug and Biologics” (priority 2007, published 2009)
Entries after “also recorded” stand apart in the source; their conditions may differ.

Assays:
[1] = tested on: chemokine ligand 2 (CCL2) gene expression; experiment: UUO model, RT-PCR gene expression analysis of obstructed kidney (CCL2); type: in vivo, mice (C57BL/6); conditions: UUO mice, 12 days of treatment, vs controls
From the text: (§1) The theraputic effects of rhGDF-5 was further tested along with SD282 in Unilateral Ureter Obstruction Model (UUO) in the present invention. Mice were subjected to unilateral ureter obstruction and treatment started on the same day as the UUO surgery. After 12 days of treatment, the obstructed kidneys were harvested for Hematoxylin and Eosin (H&E) staining and RT-PCR analysis. […] CCL2 induces recruitment of monocytes, T lymphocytes, eosinophils, and basophils and is responsible for many inflammatory reactions to disease, and has been linked to recruitment of osteoclast precursors. PDGF plays a role in embryonic development, cell proliferation, cell migration, and angiogenesis.
(§2) The efficacy of rhGDF-5 was further tested along with SD282 in a mouse UUO model. Treatment started on the same day of the UUO, and included rhGDF-5 and SD282. At the end of the 12-day treatment, histology scoring and gene expression analysis was preformed on endpoint measurements.
(§3) Experimental animals were treated with rhGDF-5, 3 times per week, via ip injection at 300 μg/kg and SD282, twice, daily through gavage at 60 mg/kg dissolved in 0.5% methylcellulose. Control mice received an equal volume of 0.5% methylcellulose vehicle. Treatment dose was selected based on a review of the literature and represented the highest dose that was free of side effects in other experimental studies. […]

[2] = tested on: platelet-derived growth factor (PDGF) gene expression; experiment: UUO model, RT-PCR gene expression analysis of obstructed kidney (PDGF); type: in vivo, mice (C57BL/6); conditions: UUO mice, 12 days of treatment, vs controls
From the text: as §1, §2, §3

diabetic rats = experiment: Streptozotocin-induced diabetic nephropathy rat model; type: in vivo; conditions: rhGDF-5 300 μg/kg ip 3x per week
Experimental: The efficacy of the combination therapy was tested in a diabetic nephropathy rat model.
Diabetic condition in the animals was induced for 1 week by a single i.v. injection of Streptozotocin. Subsequently, the animals were treated for 14 weeks with or without 300 μg/kg rhGDF-5 (i.p., 3× per week), 10 mg/kg of Enalapril (gavage, once daily), or a combination of the two.
Blood glucose measurements and subcutaneous insulin administrations (as necessary) were carried out thrice weekly to maintain a glucose level between 280 and 400 mg/dL. Urine samples were collected every two weeks; blood samples collected every four weeks for measuring level of urine microalbumin, serum creatinine, blood urea nitrogen, and urine creatinine. On week fourteen, a final set of samples was collected; then the animals were euthanized and subjected to a limited necropsy involving the collection of the kidneys. One kidney from each animal was flash frozen for gene expression analysis as needed and the other preserved in 10% neutral buffered formalin, after which it was examined microscopically.
Histological examination was performed on the kidneys. […] Slides were evaluated on the basis of morphologic changes according to the following grading scheme: 0=within normal limits; 1=minimal; 2=mild; 3=moderate. All microscopic slides were evaluated and gross and microscopic findings were reported.

UUO induced renal injury = experiment: Unilateral Ureter Obstruction (UUO) model, H&E histology renal injury scoring; type: in vivo, mice (C57BL/6); conditions: UUO mice, 12 days of treatment, vs vehicle; rhGDF-5 300 μg/kg ip 3x/week, SD282 60 mg/kg gavage twice daily
From the text: The theraputic effects of rhGDF-5 was further tested along with SD282 in Unilateral Ureter Obstruction Model (UUO) in the present invention. Mice were subjected to unilateral ureter obstruction and treatment started on the same day as the UUO surgery. After 12 days of treatment, the obstructed kidneys were harvested for Hematoxylin and Eosin (H&E) staining and RT-PCR analysis. […] CCL2 induces recruitment of monocytes, T lymphocytes, eosinophils, and basophils and is responsible for many inflammatory reactions to disease, and has been linked to recruitment of osteoclast precursors. PDGF plays a role in embryonic development, cell proliferation, cell migration, and angiogenesis. […] The efficacy of rhGDF-5 was further tested along with SD282 in a mouse UUO model. Treatment started on the same day of the UUO, and included rhGDF-5 and SD282. At the end of the 12-day treatment, histology scoring and gene expression analysis was preformed on endpoint measurements. Unilateral Ureter Obstruction Model (“UUO”) was used because it is a commonly used mouse model for progressive tubulointerstitial fibrosis in the kidney. Male C57BL/6 mice were purchased at age 6 to 8 weeks from Jackson Labs (Bar Harbor, Me.). They were housed in an animal facility that was maintained at 25° C. with a 12-hour light-dark cycle. […]

5/6 nephrectomy rats = experiment: 5/6 nephrectomy (Nx) rat study of chronic renal failure; type: in vivo, rat (inbred Lewis); conditions: 5/6 Nx rats, rhGDF-5 50 μg/kg ip 3 times per week
Experimental: Both sham and 5/6 Nx performed rats were treated 4 weeks post surgery with different reagents as indicated. The effects of the treatment were analyzed every two weeks through blood and urine sample analysis consisting of hematology, serum and urine chemistry and proteinuria. After 10 weeks of treatment, kidney samples were taken from the right kidney and evaluated using histopathology for glomerulorsclerosis, interstitial fibrosis and tubular degemation. All the data were converted to a weighted ranking system from 1 to 10 and averaged for the 10 weeks. A better efficacy from a treatment receives a higher score and the maximum score is the level for sham group. […]
rhGDF-5 was administrated 3 times per week at 50 μg/kg by ip. […] Effects of these treatments on kidney function was evaluated every two weeks by monitoring clinical observations, body weights, urine volume and duration of collection, and clinical pathology parameters through blood and urine sample analysis (hematology, serum chemistry, and urine chemistry). Residual urine samples were also evaluated for protein levels, beginning on Day 28, by AniLytics, Inc. On Day 70, surviving animals were euthanized and subjected to a limited necropsy, consisting of collection of the right kidney (2 sham groups) or the remaining third of the right kidney (all the Nx groups). […]

**Q.** With “rhGDF-5: recombinant human Growth and Differentiation factor-5, a protein belonging to the TGF-β superfamily (morphogen)” as the substance, how does the CCL2 gene expression [1] read?
**A.** decreased expression of CCL2; also recorded: prevents chemokine ligand 2 (CCL2)

**Q.** What about the PDGF gene expression [2] of the same substance?
**A.** decreased expression; also recorded: prevents

**Q.** And the “urine microalbumin / protein level in urine” value (diabetic rats)?
**A.** comparable efficacy on reducing urine micro albumine level; also recorded: comparable effect on reducing protein level in urine

**Q.** And the “renal injury score (histology scoring, H&E)” value (UUO induced renal injury)?
**A.** reduced renal structural damage; also recorded: reduced renal injury score

**Q.** And the “blood urea nitrogen levels” value (5/6 nephrectomy rats)?
**A.** some effect on reducing blood urea nitrogen levels
